For assay [1], the target named is Estrogen receptor beta (Homo sapiens) (UniProt Q92731).
Description: Relative binding affinity for human estrogen receptor 2 compared to [3H]estradiol (100%)
Assay [2] deals with T1, Estrogen receptor (Homo sapiens) (UniProt P03372).
T1 sequence (whole entry): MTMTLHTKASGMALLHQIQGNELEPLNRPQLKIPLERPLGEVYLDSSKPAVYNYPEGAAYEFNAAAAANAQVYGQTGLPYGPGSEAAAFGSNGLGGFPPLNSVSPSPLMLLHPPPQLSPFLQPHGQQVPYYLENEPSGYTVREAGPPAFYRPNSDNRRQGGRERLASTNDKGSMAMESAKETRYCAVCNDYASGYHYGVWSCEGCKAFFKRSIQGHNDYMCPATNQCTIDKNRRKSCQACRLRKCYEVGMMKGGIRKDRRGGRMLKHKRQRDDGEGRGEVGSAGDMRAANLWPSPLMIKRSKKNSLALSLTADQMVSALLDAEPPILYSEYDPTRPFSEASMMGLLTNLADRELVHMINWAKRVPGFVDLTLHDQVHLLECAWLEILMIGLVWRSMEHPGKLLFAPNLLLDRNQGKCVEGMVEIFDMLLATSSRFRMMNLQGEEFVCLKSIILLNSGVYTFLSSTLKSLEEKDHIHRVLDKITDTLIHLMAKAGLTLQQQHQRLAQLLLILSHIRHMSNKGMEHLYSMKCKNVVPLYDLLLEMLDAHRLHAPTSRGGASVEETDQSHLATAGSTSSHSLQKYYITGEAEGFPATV
Description: Relative binding affinity for human estrogen receptor 1 compared to [3H]estradiol (100%)

Molecules are shown by their SMILES. Where only a bound is given, the exact number is not on record here.
Note: unit not given here.

Estrogen receptor beta (Homo sapiens), sequence (Q92731 whole entry): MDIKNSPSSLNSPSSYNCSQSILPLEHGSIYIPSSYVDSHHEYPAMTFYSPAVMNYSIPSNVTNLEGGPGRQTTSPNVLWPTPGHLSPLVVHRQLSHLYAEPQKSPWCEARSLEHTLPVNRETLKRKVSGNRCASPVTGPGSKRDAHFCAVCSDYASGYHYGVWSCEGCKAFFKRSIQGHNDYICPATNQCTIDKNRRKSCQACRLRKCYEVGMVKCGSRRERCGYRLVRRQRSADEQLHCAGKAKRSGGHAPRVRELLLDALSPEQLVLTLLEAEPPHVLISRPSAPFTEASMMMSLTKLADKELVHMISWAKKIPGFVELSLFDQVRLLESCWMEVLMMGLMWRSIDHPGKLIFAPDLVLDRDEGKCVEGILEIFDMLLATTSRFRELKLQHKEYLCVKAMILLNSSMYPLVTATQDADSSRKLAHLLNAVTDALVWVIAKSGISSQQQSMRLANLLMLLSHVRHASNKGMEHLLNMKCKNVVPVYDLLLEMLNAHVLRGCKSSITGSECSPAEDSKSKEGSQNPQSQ

`Oc1ccc(-c2nn3c(-c4ccccc4)cc(-c4ccccc4)nc3c2-c2cccc(O)c2)cc1`: the Binding affinity in assay [1] and in assay [2] was < 0.01 each time.
On to `Cc1nc2c(-c3ccc(O)cc3)c(-c3ccccc3)nn2c(C)c1C`, for which the figures for the Binding affinity in assay [1] and in assay [2] were 0.01 and < 0.01, respectively.
Take `Oc1ccc(-c2nn3c(-c4ccccc4)cc(-c4ccccc4)nc3c2-c2ccccc2)cc1`: the Binding affinity in assay [1] and in assay [2] was < 0.01 in each case.
With `Cc1cc(C)n2nc(-c3cccc(O)c3)c(-c3ccc(O)cc3)c2n1`, the Binding affinity in assay [1] and in assay [2] was < 0.01 in each case.
Consider `FC(F)(F)c1cc(C(F)(F)F)n2nc(-c3ccccc3)c(-c3ccccc3)c2n1`, for which the Binding affinity in assay [1] and in assay [2] was < 0.01 each time.
Regarding `CC(C)c1cc(C(C)C)n2nc(-c3ccccc3)c(-c3ccc(O)cc3)c2n1`, the figures for the Binding affinity in assay [1] and in assay [2] were 0.05 and 0.01, respectively.
Taken in the same sequence, the figures for `Cc1nc2c(-c3ccc(O)cc3)c(-c3cccc(O)c3)nn2c(C)c1C` were < 0.01 and < 0.01.
Take `CCc1cc(CC)n2nc(-c3ccc(O)cc3)c(-c3ccccc3)c2n1`: the results for the Binding affinity in assay [1] and in assay [2] were 0.06 and 0.13, respectively.
In the case of `Cc1c(C(C)(C)C)nc2c(-c3ccc(O)cc3)c(-c3ccc(O)cc3)nn2c1C(C)(C)C`, the Binding affinity in assay [1] worked out at 0.16; in assay [2], 0.13.
Consider `CCc1cc(CC)n2nc(-c3ccccc3)c(-c3ccc(O)cc3)c2n1`, for which the figures for the Binding affinity in assay [1] and in assay [2] were 0.05 and 0.02, respectively.
The matching figures for `Cc1cc(C)n2nc(-c3ccc(O)cc3)c(-c3ccccc3)c2n1`: 0.11 and 0.02.
With `Cc1c(C(C)(C)C)nc2c(-c3ccc(O)cc3)c(-c3cccc(O)c3)nn2c1C(C)(C)C`, the Binding affinity in assay [1] and in assay [2] was < 0.01 in each case.
In the case of `Oc1ccc(-c2c(-c3ccccc3)nn3c(-c4ccccc4)cc(-c4ccccc4)nc23)cc1`, the Binding affinity in assay [1] and in assay [2] was < 0.01 in each case.
For the molecule `CC(C)c1cc(C(C)C)n2nc(-c3ccc(O)cc3)c(-c3cccc(O)c3)c2n1`, the Binding affinity was < 0.01 in assay [1] and 0.01 in assay [2].
The matching figures for `Cc1nc2c(-c3ccc(O)cc3)c(-c3ccc(O)cc3)nn2c(C)c1C`: 0.01 and 0.01.
Turning to `Cc1c(C(C)(C)C)nc2c(-c3cccc(O)c3)c(-c3ccc(O)cc3)nn2c1C(C)(C)C`, the Binding affinity in assay [1] stood at 0.01; in assay [2], 0.02.
`Cc1cc(C)n2nc(-c3ccccc3)c(-c3ccccc3)c2n1`: the Binding affinity in assay [1] and in assay [2] was < 0.01 each time.
Take `Cc1c(C(C)(C)C)nc2c(-c3ccccc3)c(-c3ccc(O)cc3)nn2c1C(C)(C)C`: the Binding affinity was 0.02 in assay [1] and 0.83 in assay [2].
Consider `CCc1cc(CC)n2nc(-c3ccc(O)cc3)c(-c3cccc(O)c3)c2n1`, for which the Binding affinity in assay [1] and in assay [2] was < 0.01 each time.
In the case of `Cc1nc2c(-c3cccc(O)c3)c(-c3ccc(O)cc3)nn2c(C)c1C`, the Binding affinity in assay [1] and in assay [2] was < 0.01 throughout.
For `CC(C)c1cc(C(C)C)n2nc(-c3ccc(O)cc3)c(-c3ccccc3)c2n1`, the Binding affinity was 0.06 in assay [1] and 0.14 in assay [2].
For the molecule `Cc1c(C(C)(C)C)nc2c(-c3ccc(O)cc3)c(-c3ccccc3)nn2c1C(C)(C)C`, the Binding affinity is 0.01 in assay [1] and < 0.01 in assay [2].
With `Oc1ccc(-c2nn3c(C(F)(F)F)cc(C(F)(F)F)nc3c2-c2ccc(O)cc2)cc1`, the values for the Binding affinity in assay [1] and in assay [2] were 1.7 and 1.9, respectively.
The matching figures for `Cc1cc(C)n2nc(-c3ccccc3)c(-c3ccc(O)cc3)c2n1`: 0.05 and 0.01.
With `Oc1ccc(-c2nn3c(C(F)(F)F)cc(C(F)(F)F)nc3c2-c2ccccc2)cc1`, the Binding affinity in assay [1] was 0.41; in assay [2], 0.39.
The matching figures for `Oc1ccc(-c2nn3cccnc3c2-c2ccc(O)cc2)cc1`: 0.1 and < 0.01.
For the molecule `Cc1cc(C)n2nc(-c3ccc(O)cc3)c(-c3cccc(O)c3)c2n1`, the Binding affinity in assay [1] and in assay [2] was < 0.01 each time.
In the case of `Oc1ccc(-c2c(-c3ccccc3)nn3c(C(F)(F)F)cc(C(F)(F)F)nc23)cc1`, the figures for the Binding affinity in assay [1] and in assay [2] were 0.05 and 0.01, respectively.
The matching figures for `CC(C)c1cc(C(C)C)n2nc(-c3cccc(O)c3)c(-c3ccc(O)cc3)c2n1`: 0.01 and < 0.01.
Take `CCc1cc(CC)n2nc(-c3cccc(O)c3)c(-c3ccc(O)cc3)c2n1`: the Binding affinity in assay [1] and in assay [2] was < 0.01 in each case.
Take `CCc1cc(CC)n2nc(-c3ccccc3)c(-c3ccccc3)c2n1`: the Binding affinity in assay [1] and in assay [2] was < 0.01 throughout.
As for `Oc1ccc(-c2nn3cccnc3c2-c2ccccc2)cc1`, the Binding affinity was 0.02 in assay [1] and < 0.01 in assay [2].
The matching figures for `Cc1cc(C)n2nc(-c3ccc(O)cc3)c(-c3ccc(O)cc3)c2n1`: 0.07 and 0.04.
Taken in the same sequence, the figures for `Oc1ccc(-c2c(-c3cccc(O)c3)nn3cccnc23)cc1` were < 0.01 and < 0.01.
With `Cc1nc2c(-c3ccccc3)c(-c3ccc(O)cc3)nn2c(C)c1C`, the values for the Binding affinity in assay [1] and in assay [2] were 0.02 and 0.01, respectively.
For `Oc1ccc(-c2c(-c3ccccc3)nn3cccnc23)cc1`, the Binding affinity in assay [1] was 0.05; in assay [2], 0.01.
Turning to `Oc1ccc(-c2c(-c3cccc(O)c3)nn3c(-c4ccccc4)cc(-c4ccccc4)nc23)cc1`, the Binding affinity in assay [1] and in assay [2] was < 0.01 each time.
`Oc1ccc(-c2c(-c3cccc(O)c3)nn3c(C(F)(F)F)cc(C(F)(F)F)nc23)cc1`: the Binding affinity was 0.04 in assay [1] and 0.01 in assay [2].
On to `Oc1ccc(-c2nn3cccnc3c2-c2cccc(O)c2)cc1`, for which the Binding affinity in assay [1] and in assay [2] was < 0.01 throughout.
Regarding `Oc1ccc(-c2nn3c(-c4ccccc4)cc(-c4ccccc4)nc3c2-c2ccc(O)cc2)cc1`, the results for the Binding affinity in assay [1] and in assay [2] were 0.03 and 0.02, respectively.
Take `Oc1ccc(-c2nn3c(C(F)(F)F)cc(C(F)(F)F)nc3c2-c2cccc(O)c2)cc1`: the Binding affinity in assay [1] came to 0.08; in assay [2] it was 0.04.
The matching figures for `CCc1cc(CC)n2nc(-c3ccc(O)cc3)c(-c3ccc(O)cc3)c2n1`: 0.07 and 0.16.
The matching figures for `CC(C)c1cc(C(C)C)n2nc(-c3ccc(O)cc3)c(-c3ccc(O)cc3)c2n1`: 0.07 and 0.1.
As to `c1ccc(-c2nn3cccnc3c2-c2ccccc2)cc1`, the Binding affinity in assay [1] and in assay [2] was < 0.01 throughout.

The values above are taken from ChEMBL document CHEMBL1138843, “Pyrazolo[1,5-a]pyrimidines: estrogen receptor ligands possessing estrogen receptor beta antagonist activity” (J Med Chem, 2004).
